# Experimental data published in patent US20200164005A1, “PHARMACEUTICAL COMPOSITIONS OF A BILE ACID DERIVATIVE AND MICROBIOME AND USES THEREOF” (Intercept Pharmaceuticals, Inc., priority 2017, published 2020).
# Experiments:
# [1] = target: T1, farnesoid X receptor (FXR) (Homo sapiens, UniProt Q96RI1); details: cited from earlier work
# T1 sequence (Q96RI1 1-486): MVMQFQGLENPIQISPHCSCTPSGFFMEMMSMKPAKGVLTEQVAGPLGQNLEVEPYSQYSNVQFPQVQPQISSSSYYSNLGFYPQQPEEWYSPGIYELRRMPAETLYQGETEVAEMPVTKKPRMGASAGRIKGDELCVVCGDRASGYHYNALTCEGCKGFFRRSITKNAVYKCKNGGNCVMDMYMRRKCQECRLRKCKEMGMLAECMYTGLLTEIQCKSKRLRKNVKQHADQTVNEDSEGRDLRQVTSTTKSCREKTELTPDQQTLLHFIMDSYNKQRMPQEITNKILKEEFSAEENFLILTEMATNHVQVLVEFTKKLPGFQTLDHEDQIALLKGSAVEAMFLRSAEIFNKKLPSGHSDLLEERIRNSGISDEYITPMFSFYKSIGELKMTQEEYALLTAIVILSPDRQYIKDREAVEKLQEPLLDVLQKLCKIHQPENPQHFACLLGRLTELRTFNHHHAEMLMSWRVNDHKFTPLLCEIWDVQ
# [2] = tested on: endogenous bile acids; assay: Luminal bile acid concentrations in small intestine and feces of OCA-treated mice; format: in vivo
# Protocol: FIG. 54: Bar graphs showing the concentration of taurocholic acid and taurodeoxycholic acid at proximal small bowel and distal small bowel, or in feces, in samples collected from mice treated with control (methylcellulose) or OCA (10 mg/kg/day) for 14 days, followed by no treatment for additional 14 days. Statistically significant differences based on two-tailed Student t-tests are noted: p<0.05 (*) and p<0.01 (**).
# FIGS. 59A-59E: Effect of OCA administration on luminal bile acid concentrations in the murine small intestine and feces. […] Mean+SE, *p<0.05, **p<0.01, ***p<0.001. FIGS. 59D-59E show heatmaps of luminal bile acid concentrations in the proximal (FIG. 59D) and distal (FIG. 59E) small intestine.
# For example, Streptococci represent as much as 20% of the human small intestinal microbiota by 16S tagged sequencing (Dlugosz et al., Sci Rep-Uk, 5 (2015)); El Aidy et al., Curr Opin Biotechnol., 32, 14-20 (2015)). Some of these bacteria are environmental organisms used in the manufacturing of food introduced into the small intestine with diet, including Streptococcus thermophilus, Bifidobacterium breve, Lactobacillus casei, and Lactococcus lactis (Brigidi et al., International Journal of Food Microbiology, 81, 203-209 (2003); Derrien and van Hylckama Vlieg, Trends Microbiol., 23, 354-366 (2015); Stiles and Holzapfel, International Journal of Food Microbiology, 36, 1-29 (1997)). To determine whether OCA treatment can alter the gut microbiota composition specifically in the small intestine, mice were treated with OCA for 14 days, the microbiota composition in the proximal and distal small intestine, as well as the stool, and quantified bile acids were characterized. Since OCA was prepared in methylcellulose, an additional methylcellulose control group was included due to its previously described effect on fecal bile acid levels (Cox et al., FASEB J 27, 692-702 (2013)).
# [3] = tested on: bacterial strains found in the human small intestine; assay: Inhibition of bacterial growth by bile acids, microbroth dilution, optical density at 630 nm; format: cell-based
# Protocol: The toxicity of several bile acids to various gut microbiome species was examined. Representative species were exposed to different bile acids at a range of concentrations under either aerobic or anaerobic condition, and the growth of the species at these concentrations was measured by determining the optical density of the culture.
# Lactobacillus casei CP was purchased from Custom Probiotics Inc. (Glendale, Calif.) as L. casei Custom Probiotic Powder (strain confirmed by Sanger sequencing of the 16S gene). Pediococcus pentosaceus KE-99 was purchased from Probiohealth (Beverly Hills, Calif.) as KE-99 LACTO Tablet (strain confirmed by Sanger sequencing of the 16S gene). L. casei 393, Streptoccocus thermophilus LMD-9, Akkermansia muciniphila Muc, and Veillonella parvula Te3 were purchased from the American Type Culture Collection (ATCC, Manassas, Va.). Lactococcus lactis NZ9000 was purchased from BOCA Scientific (Boca Raton, Fla.). Escherichia coli Nissle was obtained from Dr. Mark Goulian (University of Pennsylvania, Philadelphia, Pa.).
# L. casei, P. pentasaceus, and L. lactis were grown in de Man, Rogosa, and Sharpe (MRS) medium (Anaerobe Systems, Morgan Hill, Calif.); E. coli was grown in lysogeny broth (LB) medium (Fisher Scientific, USA); S. thermophilus and A. muciniphila were grown in brain heart infusion (BHI) medium (Fisher Scientific, USA and Anaerobe Systems, Morgan Hill, Calif.), and; V. parvula was grown in reinforced clostridial medium (Fisher Scientific, USA). Aerobic cultures were incubated at 37° C.; anaerobic cultures were incubated at 37° C. in an anaerobic glove box (Coy Laboratories, Grass Lake, Mich.).
# Glycochenodeoxycholic, glycocholic, and taurocholic acids were purchased from Sigma Aldrich (St. Louis, Mo.). Obeticholic acid was provided by Intercept Pharmaceuticals, Inc. (New York, N.Y.).
# Inhibition of bacterial growth by bile acids was determined by the microbroth dilution method. Plates were prepared with 100 uL of medium containing the appropriate concentrations of bile acid. Wells were inoculated with 1 uL of an overnight culture, covered, and incubated overnight (3 days for A. muciniphila and V. parvula, which are slow growing organisms). Growth was measured via optical density at 630 nm, and measurements were zeroed against wells containing the appropriate bile acid level with no bacteria. All tests were performed in triplicate. Data is expressed as the percent (%) reduction in growth, which was calculated against controls (i.e., no bile acids). The responses of representative species to different concentrations of bile acids are illustrated by the heat maps shown in FIGS. 53A-53D.
smiles,measurement,setting,value
"CC[C@H]1[C@@H](O)[C@@H]2[C@H](CC[C@]3(C)[C@@H]([C@H](C)CCC(=O)O)CC[C@@H]23)[C@@]2(C)CC[C@@H](O)C[C@@H]12 [OCA, 3α,7α-dihydroxy-6α-ethyl-5β-cholan-24-oic acid]",potency as FXR agonist relative to the endogenous FXR agonist CDCA,[1],100 fold
same,OCA in the small intestinal lumen of treated mice,"[2]; 10 mg/kg OCA, 14 days",detectable
same,contribution of OCA to the total concentration of bile acids in the small intestinal lumen,"[2]; 10 mg/kg OCA, 14 days",contributed minimally
same,luminal endogenous primary bile acids in the feces,"[2]; 10 mg/kg OCA, 14 days",no effect
same,luminal endogenous primary bile acids in proximal and distal small intestine,"[2]; 10 mg/kg OCA, 14 days, greatest in proximal small intestine",significant reduction
same,luminal cholic and taurocholic acids,"[2]; 10 mg/kg OCA, 14 days, small intestine",largest consistent decreases
same,levels of taurocholic and taurodeoxycholic acids in proximal and distal small intestine,"[2]; OCA 10 mg/kg/day, day 14",reduction
same,levels of taurocholic and taurodeoxycholic acids in the colon (feces),"[2]; OCA 10 mg/kg/day, day 14",not in the colon (feces)
same,levels of taurocholic and taurodeoxycholic acids in the proximal small intestine after cessation,"[2]; day 28, two weeks after cessation of OCA",continued reduction
same,effect on growth at calculated physiologic levels of the human small intestine,"[3]; approximately 12 micromolar, aerobically or anaerobically",no effect on any strain tested
same,effect on growth at high concentrations,[3]; high concentrations of OCA,growth inhibitory effect on several strains
